Data on 1 compound can be found in article PMC4263427 (Biochemistry, 2014).

The target in this assay is T1, class II fructose 1,6-bisphosphate aldolase (SaFBA) (Staphylococcus aureus, UniProt Q5HE75).
T1 sequence (Q5HE75 1-286): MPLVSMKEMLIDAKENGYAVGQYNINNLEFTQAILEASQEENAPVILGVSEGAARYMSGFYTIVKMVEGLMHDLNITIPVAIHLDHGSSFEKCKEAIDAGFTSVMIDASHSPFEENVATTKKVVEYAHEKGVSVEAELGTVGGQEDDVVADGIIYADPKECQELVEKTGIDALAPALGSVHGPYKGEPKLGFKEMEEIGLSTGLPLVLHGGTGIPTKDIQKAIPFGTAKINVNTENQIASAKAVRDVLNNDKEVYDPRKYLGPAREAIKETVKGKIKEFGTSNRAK
The experiment in a line: coupled fluorescence. The class given is biochemical.

Molecules are shown by their SMILES.

In general, Ki refers to the equilibrium dissociation constant of an inhibitor or competing ligand from its target. Read a low Ki as a stronger hold on the target.

`O=C(O)c1ccc2cccc(O)c2n1` [HCA, 8-hydroxyquinoline-2-carboxylic acid] registered a Ki of 96 ± 22 µM.
